From US5332818A, “Immunosuppressive agent and process of producing the same” (Toray Industries, Inc., priority 1989, dated 1994)

Tested on: mouse spleen cells
Test: Suppression of mitogen (ConA) reaction
Assay type: cell-based, C57BL/6 mouse
Details: 48 hours, 3 cases, read-out: Suppression Rate of Mitogen Reaction; for inhibition at 1 µg/mL: 1 μg/ml; for inhibition at 10 µg/mL: 10 μg/ml; for inhibition at 50 µg/mL: 50 μg/ml
Procedure: If mouse spleen cells are cultured in vitro in the presence of concanavalin A (hereinafter referred to as "ConA" for short), the cells are divided and proliferated (mitogen reaction). In this system, the immunosuppressive agent of the present invention or cyclosporin A as a comparative example was added to the culture medium and the effects to the mitogen reaction were examined.
More particularly, C57BL/6 mouse was sacrificed and the spleen was removed. The spleen cells were suspended in RPMI 1640 culture medium containing 10% fetal calf serum (hereinafter referred to as "RPMI 1640" for short) so as to prepare a spleen cell suspension (5×10^6 cells/ml). In the wells of a flat-bottomed 96-well microplate, 100 μl of the suspension was placed and then 50 μl of RPMI 1640 containing ConA (4 μg/ml) as well as 50 μl of RPMI 1640 containing the test compound in the concentration shown in Table 2 were added. The cells were cultured for 48 hours (37° C. 5%CO2) As a control, 50 μl of RPMI 1640 was added. Eight hours before the termination of the culture, 2 μ Ci of [^3 H] thymidine was […], added. After termination of the culture, the cells were collected on a filter paper by using a cell harvester. After drying the filter paper, the filter paper was placed in a vial containing toluene-based scintillator and the radioactivity was measured by a liquid scintillation counter.
The suppression rate of mitogen reaction was calculated according to the following equation: [formula]

SMILES	inhibition at 1 µg/mL [%]	inhibition at 10 µg/mL [%]	inhibition at 50 µg/mL [%]
Oc1ccc2c3c1O[C@H]1c4[nH]c5ccc6ccccc6c5c4C[C@@]4(O)[C@@H](C2)N(CC2CC2)CC[C@]314 [cyclopropylmethyl OH H NH 4',5'-benzo]	2	30	88
Cn1c2c(c3ccccc31)C[C@@]1(O)[C@H]3Cc4ccc(O)c5c4[C@@]1(CCN3CC1CC1)[C@H]2O5 [cyclopropylmethyl OH H NMe H H]	15	69	100
CC(=O)Oc1ccc2c3c1O[C@H]1c4[nH]c5ccccc5c4C[C@@]4(OC(C)=O)[C@@H](C2)N(CC2CC2)CC[C@]314 [cyclopropylmethyl OAc Ac NH H H]	4	55	100
COc1ccc2c3c1O[C@H]1c4[nH]c5ccccc5c4C[C@@]4(O)[C@@H](C2)N(CC2CC2)CC[C@]314 [cyclopropylmethyl OH Me NH H H]	9	65	100
O=[N+]([O-])c1cccc2c3c([nH]c12)[C@@H]1Oc2c(O)ccc4c2[C@@]12CCN(CC1CC1)[C@H](C4)[C@]2(O)C3 [cyclopropylmethyl OH H NH 7'-NO2 H]	5	55	100
C=CCN1CC[C@]23c4c5ccc(O)c4O[C@H]2c2[nH]c4c(Cl)cccc4c2C[C@@]3(O)[C@H]1C5 [allyl OH H NH 7'-Cl H]	17	50	100
Oc1ccc2c3c1O[C@H]1c4[nH]c5c(Cl)cccc5c4C[C@@]4(O)[C@@H](C2)N(CC2CC2)CC[C@]314 [cyclopropylmethyl OH H NH 7'-Cl H]	15	75	100
Oc1ccc2c3c1O[C@H]1c4nc5ccccc5cc4C[C@@]4(O)[C@@H](C2)N(CC2CC2)CC[C@]314 [cyclopropylmethyl OH H CH H H]	15	43	75
C=CCN1CC[C@]23c4c5ccc(O)c4O[C@H]2c2oc4ccccc4c2C[C@@]3(O)[C@H]1C5 [allyl OH H O H H]	6	45	100
Cc1ccc2[nH]c3c(c2c1)C[C@@]1(O)[C@H]2Cc4ccc(O)c5c4[C@@]1(CCN2CC1CC1)[C@H]3O5 [cyclopropylmethyl OH H NH 5'-Me H]	8	34	100
C=CCN1CC[C@]23c4c5ccc(O)c4O[C@H]2c2[nH]c4ccc(C)cc4c2C[C@@]3(O)[C@H]1C5 [allyl OH H NH 5'-Me H, 5'-methylnaloxindole]	22	45	100
C=CCN1CC[C@]23c4c5ccc(OC)c4O[C@H]2c2[nH]c4ccccc4c2C[C@@]3(O)[C@H]1C5 [allyl OH Me NH H H]	17	32	100
CN1CC[C@]23c4c5ccc(O)c4O[C@H]2c2[nH]c4ccccc4c2C[C@H]3[C@H]1C5 [Me H H NH H H]	0	12	52
Oc1ccc2c3c1O[C@H]1c4[nH]c5c(F)cccc5c4C[C@@]4(O)[C@@H](C2)N(CC2CC2)CC[C@]314 [cyclopropylmethyl OH H NH 7'-F H]	15	61	100
CC(=O)O[C@@]12Cc3c([nH]c4ccccc34)[C@@H]3Oc4c(O)ccc5c4[C@@]31CCN(CC1CC1)[C@@H]2C5 [cyclopropylmethyl OAc H NH H H]	2	70	100
Cc1ccc2c3c([nH]c2c1)[C@@H]1Oc2c(O)ccc4c2[C@@]12CCN(CC1CC1)[C@H](C4)[C@]2(O)C3 [cyclopropylmethyl OH H NH 6'-Me H]	0	28	100
C=CCN1CC[C@]23c4c5ccc(OC(C)=O)c4O[C@H]2c2[nH]c4ccccc4c2C[C@@]3(OC(C)=O)[C@H]1C5 [allyl OAc Ac NH H H]	2	40	100
Oc1ccc2c3c1O[C@H]1c4[nH]c5ccc(Br)cc5c4C[C@@]4(O)[C@@H](C2)N(CC2CC2)CC[C@]314 [cyclopropylmethyl OH H NH 5'-Br H]	7	40	100
Oc1ccc2c3c1O[C@H]1c4nc5ccccc5nc4C[C@@]4(O)[C@@H](C2)N(CC2CC2)CC[C@]314 [cyclopropylmethyl OH H N H H]	10	34	55
Oc1ccc2c3c1O[C@H]1c4[nH]c5ccc(Cl)cc5c4C[C@@]4(O)[C@@H](C2)N(CC2CC2)CC[C@]314 [cyclopropylmethyl OH H NH 5'-Cl H]	12	37	100
C=CCN1CC[C@]23c4c5ccc(O)c4O[C@H]2c2c(c4ccccc4n2C)C[C@@]3(O)[C@H]1C5 [allyl OH H NMe H H]	13	50	100
